{"source": "patent US20120029177A1", "about": "“HETEROCYCLE-AMINO ACID DERIVATIVES FOR TARGETING CANCER TISSUE AND RADIOACTIVE OR NON-RADIOACTIVE LABELED COMPOUNDS THEREOF” (SNU R&DB FOUNDATION, priority 2009, published 2012)", "key": {"[1]": {"tested_on": "SNU-C4 xenografted nude mice", "experiment": "Biodistribution study in SNU-C4 xenografted nude mice after intravenous injection", "assay_type": "in vivo, mouse", "settings": "for % ID/g Tumor: SNU-C4 tumor", "method": "Human colon cancer cell line SNU-C4 was cultured in RPMI1640 media containing 10% fetal bovine serum and harvested using trypsin. The cells were washed using 10 mL PBS and centrifugation at 3,000 rpm. Each nude mouse was injected with 2×10^5 cells/0.1 mL on the right shoulder subcutaneously. On 13 days post-injection, each 10 μCi/0.1 mL of ^68Ga labeled agent was injected into the xenografted mice through the tail vein. The injected mice were sacrificed at 10 min, 30 min, 1 hr, and 2 hr, cancer, blood, muscle, heart, liver, spleen, stomach, intestine, and bone were obtained, weighed, and their radioactivities were counted. The results were expressed as percentages of injected dose per gram tissue (% ID/g)."}, "CT-26 cells": {"tested_on": "CT-26 cells", "experiment": "In vitro cell uptake, CT-26 (FIG. 1b)", "assay_type": "cell-based, mouse", "settings": "controls ^68Ga-DO2A, ^68Ga-DO3A", "method": "Human colon cancer cell line SNU-C4 was purchased from Korea Cell Line Bank (KCLB). Human thyroid cell line ARO, human liver cancer cell line Hep3B, human glioma cell line U251MG and U87MG, and mouse colon cell line CT-26 were purchased from American Type Culture Collection (ATCC). SNU-C4 and ARO were culture in RPMI1640 (Welgene Inc., Korea) and Hep3B, U251 MG, U87MG, and CT-26 were cultured in DMEM (Welgene Inc., Korea). Penicillin, streptomycin and amphotericin B (10,000 IU/mL, 10 mg/mL and 25 μg/mL, respectively, Mediatech Inc., U.S.A.) 1% mixture and fetal bovine serum (Welgene Inc., Korea) were added to all cell culture media. Cell culture was done in 37° C. incubator with supply of 5% CO2.\nAbout 1.8×10^5 cells/mL CT-26 and 1.2×10^5 cells/mL U87MG were put into 24-well incubation plate and incubated for 20 hr. When the each well was about 80% confluent with cells, 296 kBq/0.5 mL of ^68Ga labeled agent was added to each well. Culture supernatants were discarded at each time point and cells were washed with ice-cooled Hank's balanced salt solution (HBSS, pH7.3, Gibco, U.S.A.) 2 times. The cells were dissolved by 0.5% sodium dodecylsulfate (SDS), recovered and counted using a gamma counter (Packard, Can berra Co., U.S.A.). Total protein amount in each sample was measured by bicinchonic acid (BCA, Pierce, U.S.A.) method."}, "[2]": {"tested_on": "SNU-C4 xenografted nude mice", "experiment": "PET imaging of tumor xenografted mice", "assay_type": "in vivo, mouse", "settings": "PET at 1 and 2 hr post-injection, FIG. 2", "method": "Human colon cancer cell line SNU-C4 was cultured in RPMI1640 media containing 10% fetal bovine serum and harvested using trypsin. The cells were washed using 10 mL PBS and centrifugation at 3,000 rpm. Each nude mouse was injected with 2×10^5 cells/0.1 mL on the right shoulder subcutaneously. On 14 days post-injection, each 10 μCi/0.1 mL of ^68Ga labeled agent was injected into the xenografted mice through the tail vein. The injected mice were anesthetized using 2% isoflurane, PET images were obtained at 1 and 2 hr post-injection using rodent R4, microPET scanner (Concorde Microsystem Inc.). The images were analyzed using ASIPro software (Concorde Microsystem Inc.)."}, "[3]": {"settings": "10 min after intravenous injection"}, "[4]": {"settings": "30 min after intravenous injection"}, "[5]": {"settings": "1 hr after intravenous injection"}, "[6]": {"settings": "2 hr after intravenous injection"}}, "data": [{"smiles": "NC(CN1CCN(CC(=O)[O-])CCNCCN(CC(=O)[O-])CC1)C(=O)[O-].[68Ga+3]", "note": "(centres unmarked) [^68Ga-DO2A-ala]", "values": [{"measurement": "% ID/g Tumor", "setting": "[1]; [3]", "result": "2.88 ± 0.39", "unit": "% ID/g"}, {"measurement": "% ID/g Tumor", "setting": "[1]; [4]", "result": "2.30 ± 0.53", "unit": "% ID/g"}, {"measurement": "% ID/g Tumor", "setting": "[1]; [5]", "result": "1.05 ± 0.33", "unit": "% ID/g"}, {"measurement": "% ID/g Tumor", "setting": "[1]; [6]", "result": "1.08 ± 0.18", "unit": "% ID/g"}, {"measurement": "tumor uptake compared with the control heterocyclic compound (in words)", "setting": "[1]; SNU-C4 xenografted nude mice, 10 min to 2 hr", "result": "always higher than that of ^68Ga-DO2A"}, {"measurement": "% ID/g Blood", "setting": "[1]; [3]", "result": "7.75 ± 0.97", "unit": "% ID/g"}, {"measurement": "% ID/g Blood", "setting": "[1]; [4]", "result": "5.26 ± 1.36", "unit": "% ID/g"}, {"measurement": "% ID/g Blood", "setting": "[1]; [5]", "result": "3.12 ± 0.89", "unit": "% ID/g"}, {"measurement": "% ID/g Blood", "setting": "[1]; [6]", "result": "1.94 ± 0.24", "unit": "% ID/g"}, {"measurement": "% ID/g Bone", "setting": "[1]; [3]", "result": "2.60 ± 0.56", "unit": "% ID/g"}, {"measurement": "% ID/g Bone", "setting": "[1]; [4]", "result": "2.22 ± 0.49", "unit": "% ID/g"}, {"measurement": "% ID/g Bone", "setting": "[1]; [5]", "result": "1.57 ± 0.52", "unit": "% ID/g"}, {"measurement": "% ID/g Bone", "setting": "[1]; [6]", "result": "1.06 ± 0.52", "unit": "% ID/g"}, {"measurement": "% ID/g Heart", "setting": "[1]; [3]", "result": "1.98 ± 0.06", "unit": "% ID/g"}, {"measurement": "% ID/g Heart", "setting": "[1]; [4]", "result": "1.19 ± 0.34", "unit": "% ID/g"}, {"measurement": "% ID/g Heart", "setting": "[1]; [5]", "result": "0.79 ± 0.34", "unit": "% ID/g"}, {"measurement": "% ID/g Heart", "setting": "[1]; [6]", "result": "0.45 ± 0.10", "unit": "% ID/g"}, {"measurement": "% ID/g Intestine", "setting": "[1]; [3]", "result": "1.91 ± 0.33", "unit": "% ID/g"}, {"measurement": "% ID/g Intestine", "setting": "[1]; [4]", "result": "1.40 ± 0.38", "unit": "% ID/g"}, {"measurement": "% ID/g Intestine", "setting": "[1]; [5]", "result": "3.91 ± 2.96", "unit": "% ID/g"}, {"measurement": "% ID/g Intestine", "setting": "[1]; [6]", "result": "0.77 ± 0.03", "unit": "% ID/g"}, {"measurement": "% ID/g Kidney", "setting": "[1]; [3]", "result": "13.33 ± 4.30", "unit": "% ID/g"}, {"measurement": "% ID/g Kidney", "setting": "[1]; [4]", "result": "14.50 ± 8.89", "unit": "% ID/g"}, {"measurement": "% ID/g Kidney", "setting": "[1]; [5]", "result": "4.71 ± 2.26", "unit": "% ID/g"}, {"measurement": "% ID/g Kidney", "setting": "[1]; [6]", "result": "3.99 ± 0.54", "unit": "% ID/g"}, {"measurement": "% ID/g Liver", "setting": "[1]; [3]", "result": "1.74 ± 0.25", "unit": "% ID/g"}, {"measurement": "% ID/g Liver", "setting": "[1]; [4]", "result": "1.46 ± 0.27", "unit": "% ID/g"}, {"measurement": "% ID/g Liver", "setting": "[1]; [5]", "result": "1.39 ± 0.47", "unit": "% ID/g"}, {"measurement": "% ID/g Liver", "setting": "[1]; [6]", "result": "0.99 ± 0.04", "unit": "% ID/g"}, {"measurement": "% ID/g Lung", "setting": "[1]; [3]", "result": "8.45 ± 0.98", "unit": "% ID/g"}, {"measurement": "% ID/g Lung", "setting": "[1]; [4]", "result": "8.23 ± 2.41", "unit": "% ID/g"}, {"measurement": "% ID/g Lung", "setting": "[1]; [5]", "result": "4.21 ± 1.47", "unit": "% ID/g"}, {"measurement": "% ID/g Lung", "setting": "[1]; [6]", "result": "3.23 ± 0.49", "unit": "% ID/g"}, {"measurement": "% ID/g Muscle", "setting": "[1]; [3]", "result": "2.08 ± 0.43", "unit": "% ID/g"}, {"measurement": "% ID/g Muscle", "setting": "[1]; [4]", "result": "1.81 ± 0.77", "unit": "% ID/g"}, {"measurement": "% ID/g Muscle", "setting": "[1]; [5]", "result": "0.87 ± 0.40", "unit": "% ID/g"}, {"measurement": "% ID/g Muscle", "setting": "[1]; [6]", "result": "0.49 ± 0.08", "unit": "% ID/g"}, {"measurement": "% ID/g Spleen", "setting": "[1]; [3]", "result": "1.61 ± 0.26", "unit": "% ID/g"}, {"measurement": "% ID/g Spleen", "setting": "[1]; [4]", "result": "1.30 ± 0.29", "unit": "% ID/g"}, {"measurement": "% ID/g Spleen", "setting": "[1]; [5]", "result": "1.24 ± 0.34", "unit": "% ID/g"}, {"measurement": "% ID/g Spleen", "setting": "[1]; [6]", "result": "0.82 ± 0.09", "unit": "% ID/g"}, {"measurement": "% ID/g Stomach", "setting": "[1]; [3]", "result": "2.48 ± 0.62", "unit": "% ID/g"}, {"measurement": "% ID/g Stomach", "setting": "[1]; [4]", "result": "1.49 ± 0.62", "unit": "% ID/g"}, {"measurement": "% ID/g Stomach", "setting": "[1]; [5]", "result": "12.82 ± 7.46", "unit": "% ID/g"}, {"measurement": "% ID/g Stomach", "setting": "[1]; [6]", "result": "0.38 ± 0.05", "unit": "% ID/g"}, {"measurement": "tumor cell uptake versus control agents", "setting": "CT-26 cells", "result": "significantly increase tumor cell uptakes"}, {"measurement": "tumor uptake in PET images", "setting": "[2]", "result": "high tumor uptakes"}]}]}
